Reference: paper PMC12502564, “Evaluation of LLM-generated peptide as foundation template for discovery of effective encrypted AMPs against clinical superbugs” (Microbiology Spectrum, 2025)
Like-named read-outs stand apart in the source and are kept apart here. No end group written: not given here.

Experiments:
MRSA = assay: Time-kill curve; type: cell-based, methicillin-resistant Staphylococcus aureus; conditions: ~10^5 CFU mL^−1 in MH broth
Procedure: (§1) Bacteria in the logarithmic growth phase were diluted to approximately 10^5 CFU mL^−1 in MH broth and treated with peptides, polymyxin B, or vancomycin at final concentrations of 1/2 × MIC, 1 × MIC, 2 × MIC, and 4 × MIC. After the addition of the test compound, samples were taken at 0, 3, 6, 9, 12, and 24 h and serially diluted. Subsequently, 5 µL of the diluted samples were spread on agar plates and incubated at 37°C for 20 h. The bacterial concentration CFU mL^−1 at the corresponding time point of each sample was calculated based on the number of colonies on the agar plate, and the log10 (CFU mL^−1) was plotted against time (h).

CRAB 2210186 [1] = type: cell-based, carbapenem-resistant Acinetobacter baumannii
Procedure: (§2) The MIC of all peptides was determined using the microdilution broth method in a 96-well plate. Peptides were dissolved in the DMSO with an initial concentration of 12,800 µg mL^−1. And cells of eight strains were separately suspended in the MHB at a density of approximately 10^5 CFU mL^−1. In the first column of the 96-well plate, 16 µL of peptide and 184 µL of MHB were added to each well to achieve a final concentration of 1,024 µg mL^−1. One-hundred microliters of MHB was added to each of the remaining wells. Then the first column of liquid was mixed well and diluted to the 12th column using the twofold dilution method. One-hundred microliters of prepared bacterial solution was added to all wells, and the 96-well plate was incubated at 37°C for 18–24 h. The MIC was defined as the concentration of the peptide in the well just preceding the first well showing visible turbidity. All experiments were performed in triplicate to ensure reliability.

MRSA 2210187 = type: cell-based, methicillin-resistant Staphylococcus aureus
Procedure: as §2

CRPA 2403282 = type: cell-based, carbapenem-resistant P. aeruginosa
Procedure: as §2

CRKP 2403276 = type: cell-based, carbapenem-resistant K. pneumoniae
Procedure: as §2

S. aureus ATCC25923 = type: cell-based, Staphylococcus aureus
Procedure: as §2

[2] = tested on: all eight bacterial strains; type: cell-based, gram-positive and gram-negative bacteria
Procedure: as §2

E. coli ATCC25922 = type: cell-based, Escherichia coli
Procedure: as §2

A. baumannii ATCC19606 = type: cell-based, Acinetobacter baumannii
Procedure: as §2

[3] = set-up: method as in earlier work; conditions: cited from earlier work
CRAB [4] = tested on: CRAB; set-up: method as in earlier work; conditions: in vitro; cited from earlier work
Excerpt: Using this validated AMP as a template, we performed sequence alignment with the National Center for Biotechnology Information (NCBI) database to identify encrypted AMPs.

CRAB [5] = assay: PI assay, cytoplasmic membrane integrity; type: cell-based, carbapenem-resistant Acinetobacter baumannii; conditions: 10 × MIC, 10^8 CFU mL^−1
Procedure: PI (which is known to stain nuclear chromatin upon cell membrane disruption) assay was carried out to evaluate the ability of AMPs to disrupt the cytoplasmic membrane integrity ([63]). After CRAB was grown to the exponential phase, bacteria cells were harvested and washed three times in washing buffer of 5 mM glucose and 5 mM HEPES (1:1, pH = 7.2) and then re-adjusted to 10^8 CFU mL^−1 in the same buffer. Bacterial suspensions (150 µL/well) were loaded into black-walled, clear-bottom 96-well plates with lids. Following bacterial loading, 50 µL of 10 µM PI was introduced into each well, with 30 min pre-incubation CRAB. Post-incubation fluorescence signals were acquired using 535 nm excitation and 617 nm emission wavelengths. Compounds (10 µL) were then administered to achieve 1 × MIC/10 × MIC-equivalent final concentrations in the dye-loaded bacterial suspensions. Real-time fluorescence monitoring was performed with continuous acquisition during the first 10 min, followed by measurements at 10-min intervals. Negative controls received 10 µL sterile water in lieu of antimicrobial peptides while maintaining equivalent pre-incubation conditions. All experimental conditions were executed with three biological replicates.

CRAB [6] = assay: Drug resistance assay, 20 passages; type: cell-based, carbapenem-resistant Acinetobacter baumannii; conditions: 20 passages at 0.5-fold MIC, n = 3
Procedure: Resistance development assays were performed following previous report ([43]). CRAB was cultured overnight at 37°C at 160 rpm in LB. In wells of a 96-well polypropylene flat-bottom plate, 5 µL of the overnight bacterial culture (10^7 CFU mL^−1) was added to 100 µL of peptides/antibiotic solutions (with final concentrations of 0.25 to 512 µg mL^−1) in MHB. Plates were incubated for 18 to 20 h at 37°C. The MIC, the lowest concentration of peptides/antibiotic that caused lack of visible bacterial growth, was determined for each bacterial species. Thereafter, 5 µL of the growth at the 0.5-fold MIC suspension (10^7 CFU mL^−1) was added to a fresh medium containing peptides/antibiotic, and these mixtures were incubated as described above. This was repeated for 20 passages. All experiments were performed in triplicate to ensure reliability.

CRAB [7] = assay: Time-kill curve; type: cell-based, carbapenem-resistant Acinetobacter baumannii; conditions: ~10^5 CFU mL^−1 in MH broth
Procedure: as §1

CRAB [8] = assay: Biofilm formation inhibition assay (crystal violet); type: cell-based, carbapenem-resistant Acinetobacter baumannii; conditions: 1/2 × MIC, 24 h, OD570
Procedure: The crystal violet staining method ([66]) was used to determine the inhibitory activity of the compounds against the biofilm formation of CRAB. The steps were as follows: prepare a bacterial solution (10^6 CFU mL^−1), mix it with different final concentrations of the compound (1/2 × MIC, 1 × MIC, 2 × MIC, and 4 × MIC), and culture it for 24 h. After discarding the supernatant, wash with PBS, add anhydrous methanol to fix the biofilm, and then stain it with crystal violet for 60 min after drying. After washing, dissolve the biofilm with 33% glacial acetic acid, and measure OD570. Three parallel experiments were performed, and the biofilm formation inhibition rate was calculated by the following formula:
(3) Biofilm formation inhibition rate (%)=(1−OD(sample)− OD(blank)/OD(negative)− OD(blank))×100%

CRAB 2210186 [9] = assay: Thigh infection mouse model; type: in vivo, BALB/c mice; conditions: neutropenic mice, ~1 × 10^6 CFU in thigh, i.p. at 1, 3, 5, 7 h post-infection (PL-15 10 × MIC, 100 µL; polymyxin B 20,000–25,000 U kg^−1 day^−1), n = 8
Excerpt: The WHO has classified CRAB as a “Critical Priority” pathogen in its Priority Pathogens List, recognizing it as a predominant causative agent of hospital-acquired infections ([2]). This classification reflects CRAB’s global dissemination, high mortality rates, and extreme resistance profiles. Given this critical situation, a thigh infection model was employed to evaluate the in vivo therapeutic efficacy of PL-15 against CRAB. To establish the mouse thigh infection model, mice were pre-treated intraperitoneally with cyclophosphamide 4 days and 1 day prior to bacterial inoculation to induce neutropenia, administered at doses of 150 mg kg^−1 and 100 mg kg^−1, respectively ([51]). Each mouse was then injected with approximately 10^6 colony-forming unit (CFU) of CRAB in the thigh tissue, followed by four intraperitoneal injections of PL-15, polymyxin B, or phosphate-buffered saline (PBS) within 24 h of infection (Fig. 3a).
All animal experiments were performed according to the “Principles of Laboratory Animal Care” (NIH publication No. 86-23, revised 1985) and approved by the Animal Care and Use Committee of Shandong University (LL20240622, Jinan, China). Five-week-old male BALB/c mice were purchased from Beijing Vital River Laboratory Animal Technology Co., Ltd. (Beijing, China) and kept under a 12-hour light/12-hour dark cycle, humidity of 50%, and temperature of 22°C in standard specific pathogen-free individually vented cages.
To establish the mouse thigh infection model, mice were injected intraperitoneally with cyclophosphamide 4 d and 1 d before bacterial administration, at concentrations of 150 and 100 mg kg^−1, respectively, to induce neutropenia ([51]). CRAB 2210186 cells were suspended in sterile PBS, adjusted to a concentration of ~1 × 10^6 CFU per infection site and injected into the right thighs of eight mice per treatment group. PL-15 (10 × MIC, 100 µL), polymyxin B (20,000–25,000 U kg^−1 day^−1) or PBS were administered intraperitoneally at 1, 3, 5, and 7 h post-infection. Mice were euthanized 24 h after infection, and the thigh tissues were aseptically collected, weighed, homogenized, serially diluted in PBS, and plated onto solid MCA. The CFU of CRAB 2210186 per thigh was calculated by plating dilutions of the thigh homogenates (0.25 g of thigh tissue in 10 mL sterile PBS) on agar plates and counting colonies.

[10] = MHB, ~10^5 CFU mL^−1, 37°C, 18–24 h, triplicate

With `CN[C@H](CC(C)C)C(=O)N[C@H]1C(=O)N[C@@H](CC(N)=O)C(=O)N[C@H]2C(=O)N[C@H]3C(=O)N[C@H](C(=O)N[C@H](C(=O)O)c4cc(O)cc(O)c4-c4cc3ccc4O)[C@H](O)c3ccc(c(Cl)c3)Oc3cc2cc(c3O[C@@H]2O[C@H](CO)[C@@H](O)[C@H](O)[C@H]2O[C@H]2C[C@](C)(N)[C@H](O)[C@H](C)O2)Oc2ccc(cc2Cl)[C@H]1O` [vancomycin, reference compound] the “time to complete bacterial eradication of MRSA” value (MRSA; 1 × MIC) was at most 6 h, the “time to full bacterial killing of MRSA” value (MRSA; 2 × MIC) was at most 3 h and the “time to full bacterial killing of MRSA” value (MRSA; 4 × MIC) was at most 3 h.

With GIGKFLKKAKKFGKAFVKILKK-NH2 [pexiganan] the MIC (CRAB 2210186 [1]) was “below 8 µg mL^−1” and the MIC (MRSA 2210187; [10]) was “below 8 µg mL^−1”.

For GIWKTIKSMGKVFAGKILQNL-NH2 [[D4K]B2RP], the MIC (CRAB 2210186 [1]) was “below 8 µg mL^−1” and the MIC (MRSA 2210187; 2210187) was “below 8 µg mL^−1”.

In the case of GLGSLLGKAFKIGLKTVGKMMGGAPREQ [CPF-B1], the MIC (CRAB 2210186 [1]; [10]) is reported as “below 8 µg mL^−1” and the MIC (MRSA 2210187; [10]) is reported as “below 8 µg mL^−1”.

In the case of GLLKPLLKIAAKVGSNLL-NH2 [[G4K]XT-7], the MIC (CRAB 2210186 [1]) is reported as “below 8 µg mL^−1” and the MIC (MRSA 2210187; 2210187) is reported as “below 8 µg mL^−1”.

For GVIKSVLKGVAKTVALGML-NH2 [B2RP-Era], the MIC (CRAB 2210186 [1]) was “below 8 µg mL^−1” and the MIC (MRSA 2210187; 2210187) was “below 8 µg mL^−1”.

With “ILGKLLKTAAKLLSNL [[S7K,G11K]alyteserin-2a]” the MIC (CRAB 2210186 [1]; [10]) was “below 8 µg mL^−1” and the MIC (MRSA 2210187; 2210187) was “below 8 µg mL^−1”.

In the case of “LKLSPKTKDTLKKVLKGAIKGAIAIASMA-NH2 [hymenochirin-1Pa]”, the MIC (CRAB 2210186 [1]) is reported as “below 8 µg mL^−1” and the MIC (MRSA 2210187; 2210187) is reported as “below 8 µg mL^−1”.

For WLKKILAWLKKKW [BR-13], the MIC (CRPA 2403282) was 64 µg/mL, the MIC (CRKP 2403276) was “lower than 11 µg mL^−1” and the MIC (CRAB 2210186 [1]) was 18.67 µg/mL. For the same compound, the MIC (S. aureus ATCC25923) was “lower than 11 µg mL^−1”, the “MIC for all tested bacteria” value [2] was at most 64 µg/mL and the antimicrobial spectrum ([2]; judged from MICs on eight strains) was “broad-spectrum antimicrobial properties”. For the same compound, the MIC (E. coli ATCC25922) was “lower than 11 µg mL^−1”, the MIC (MRSA 2210187; 2210187) was 3.33 µg/mL and the MIC (A. baumannii ATCC19606) was “lower than 11 µg mL^−1”.

In the case of “WLKKILKWLKW [g_AMP41, short peptide … generated by AMPGenix, used as template]”, the “efficacy in treating infections in vivo” value [3] is given as “suboptimal efficacy” and the MIC (CRAB [4]) is given as 8 µg/mL.

For polymyxin B [reference compound], the “PI fluorescence (cytoplasmic membrane integrity)” value (CRAB [5]) was “strongest fluorescence response”, the “MIC change after serial passaging” value (CRAB [6]) was 64 fold and the “time to complete bacterial eradication of CRAB” value (CRAB [7]; 2 × MIC) was 6 h. For the same compound, the “time to kill CRAB” value (CRAB [7]; 4 × MIC) was at most 3 h, the biofilm formation inhibition (CRAB [8]) was “moderate biofilm inhibition” and the “reduction of bacterial load compared to the PBS control group” value (CRAB 2210186 [9]; 24 h) was “two orders of magnitude”. For the same compound, the “bacteria eradicated in the thigh tissue within 24 h” value (CRAB 2210186 [9]) was “over 97%”.
